In the supplement of paper PMC10307832:

Legend:
Test in all cases: relative viability (nuclei count vs DMSO), 5 days (fraction); higher = more cells survive
XMD13-2 + Phenformin = compound: C1CC1C(=O)NC2=NNC3=C2C=CC(=C3)C4=CC(=CC=C4)C(=O)NC5CC5 [XMD13-2] + N=C(N)NC(=N)NCCc1ccccc1 [Phenformin] (partner 250 µM)
Procedure, shortened: (§1)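 Five library-drug doses in √10 steps were combined with a fixed anchor-drug dose, or a single drug was given alone, by pin tool to lung cancer cell lines in 1536-well plates the day after seeding. Nuclei were stained and counted after 5 days. Relative viability is the nuclei count in treated wells over that in vehicle wells, taken as the median of duplicate plates.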

XMD13-2 + Lapatinib = compound: C1CC1C(=O)NC2=NNC3=C2C=CC(=C3)C4=CC(=CC=C4)C(=O)NC5CC5 [XMD13-2] + CS(=O)(=O)CCNCc1ccc(-c2ccc3ncnc(Nc4ccc(OCc5cccc(F)c5)c(Cl)c4)c3c2)o1 [Lapatinib] (partner 2 µM)
Procedure, shortened: as §1

[1] = compound: Cc1ccc(C(=O)Nc2cccc(C(F)(F)F)c2)cc1Nc1cncc(C(N)=O)c1 [ALW-II-49-7] + CC(=O)c1c(C)c2cnc(Nc3ccc(N4CCNCC4)cn3)nc2n(C2CCCC2)c1=O [Palbociclib] (partner 0.5 µM)
Procedure, shortened: as §1

ALW-II-49-7 + AZD7762 = compound: Cc1ccc(C(=O)Nc2cccc(C(F)(F)F)c2)cc1Nc1cncc(C(N)=O)c1 [ALW-II-49-7] + NC(=O)Nc1cc(-c2cccc(F)c2)sc1C(=O)N[C@H]1CCCNC1 [AZD7762] (partner 0.2 µM)
Procedure, shortened: as §1

| Cell Line | relative viability (XMD13-2 + Phenformin; first compound 0.05 µM) | relative viability (XMD13-2 + Phenformin; first compound 0.1581 µM) | relative viability (XMD13-2 + Phenformin; first compound 0.5 µM) | relative viability (XMD13-2 + Phenformin; first compound 1.581 µM) | relative viability (XMD13-2 + Phenformin; first compound 5 µM) | relative viability (XMD13-2 + Lapatinib; first compound 0.05 µM) | relative viability (XMD13-2 + Lapatinib; first compound 0.1581 µM) | relative viability (XMD13-2 + Lapatinib; first compound 0.5 µM) | relative viability (XMD13-2 + Lapatinib; first compound 1.581 µM) | relative viability (XMD13-2 + Lapatinib; first compound 5 µM) | relative viability ([1]; first compound 0.08 µM) | relative viability ([1]; first compound 0.253 µM) | relative viability ([1]; first compound 0.8 µM) | relative viability ([1]; first compound 2.53 µM) | relative viability ([1]; first compound 8 µM) | relative viability (ALW-II-49-7 + AZD7762; first compound 0.08 µM) | relative viability (ALW-II-49-7 + AZD7762; first compound 0.253 µM) | relative viability (ALW-II-49-7 + AZD7762; first compound 0.8 µM) | relative viability (ALW-II-49-7 + AZD7762; first compound 2.53 µM) | relative viability (ALW-II-49-7 + AZD7762; first compound 8 µM) |
| --- | --- | --- | --- | --- | --- | --- | --- | --- | --- | --- | --- | --- | --- | --- | --- | --- | --- | --- | --- | --- |
| NCI-H661 | 0.261 | 0.292 | 0.274 | 0.267 | 0.271 | 0.423 | 0.555 | 0.578 | 0.519 | 0.386 | 0.384 | 0.443 | 0.39 | 0.384 | 0.404 | – | – | – | – | – |
| NCI-H520 | 0.529 | 0.604 | 0.591 | 0.529 | 0.499 | 1.06 | 0.923 | 0.924 | 0.717 | 0.354 | 0.219 | 0.234 | 0.205 | 0.213 | 0.21 | – | – | – | – | – |
| ChaGo-K-1 | 0.549 | 0.416 | 0.507 | 0.489 | 0.474 | – | – | – | – | – | 0.949 | 0.98 | 0.954 | 0.887 | 0.98 | 0.94 | 0.996 | 0.882 | 0.768 | 0.807 |
| SK-MES-1 | 0.699 | 0.657 | 0.696 | 0.598 | 0.644 | 0.578 | 0.461 | 0.519 | 0.477 | 0.514 | 0.344 | 0.314 | 0.284 | 0.315 | 0.22 | – | – | – | – | – |
| COR-L 105 | 0.589 | 0.532 | 0.455 | 0.506 | 0.452 | 0.395 | 0.319 | 0.426 | 0.346 | 0.27 | 0.391 | 0.333 | 0.41 | 0.421 | 0.423 | – | – | – | – | – |
| NCI-H1703 | – | – | – | – | – | 1.38 | 1.4 | 1.17 | 0.842 | 0.72 | – | – | – | – | – | 0.124 | 0.132 | 0.116 | – | 0.127 |
| NCI-H1650 | 0.634 | 0.476 | 0.552 | 0.432 | 0.558 | 0.865 | 0.674 | 0.809 | 0.677 | 0.227 | 0.328 | 0.314 | 0.338 | 0.397 | 0.41 | – | – | – | – | – |
| NCI-H2009 | 0.473 | 0.486 | 0.54 | 0.454 | 0.517 | 0.914 | 1.03 | 1.16 | 0.894 | 0.519 | 0.211 | 0.264 | 0.242 | 0.203 | 0.199 | – | – | – | – | – |
| COR-L23 | 0.479 | 0.437 | 0.472 | 0.409 | 0.398 | 1.26 | 1.09 | 0.929 | 1.08 | 0.91 | 0.276 | 0.271 | 0.245 | 0.274 | 0.259 | – | – | – | – | – |
| NCI-H522 | 0.732 | 0.656 | 0.708 | 0.616 | 0.602 | – | – | – | – | – | 0.962 | 0.921 | 1.2 | 1.04 | 0.979 | 0.787 | 0.842 | 0.754 | 0.83 | 0.934 |
| LCLC-103H | 0.397 | 0.357 | 0.357 | 0.326 | 0.343 | – | – | – | – | – | 0.486 | 0.533 | 0.494 | 0.495 | 0.55 | 0.742 | 0.817 | 0.756 | 0.649 | 0.656 |
| NCI-H1563 | 0.683 | 0.697 | 0.64 | 0.669 | 0.679 | 1.06 | 0.88 | 0.967 | 0.839 | 1.08 | – | – | – | – | – | – | – | – | – | – |
| SW 900 | 0.696 | 0.621 | 0.682 | 0.49 | 0.781 | – | – | – | – | – | 0.475 | 0.577 | – | 0.573 | 0.658 | 0.616 | 0.485 | – | 0.554 | 0.542 |
| SK-LU-1 | 0.609 | 0.528 | 0.594 | 0.592 | 0.525 | 1.14 | 0.97 | 0.971 | 0.707 | 0.536 | 0.332 | 0.35 | 0.337 | 0.26 | 0.323 | – | – | – | – | – |
| NCI-H2228 | 0.346 | 0.37 | 0.295 | 0.313 | 0.362 | 1.42 | 1.19 | 1.05 | 1.23 | 0.426 | 0.602 | 0.416 | 0.645 | 0.812 | 0.596 | – | – | – | – | – |
| NCI-H1623 | 0.52 | 0.564 | 0.582 | 0.554 | 0.61 | – | – | – | – | – | – | – | – | – | – | – | – | – | – | – |
| IA-LM | – | – | – | – | – | 0.812 | 0.869 | 0.751 | 0.682 | 0.47 | – | – | – | – | – | – | – | – | – | – |
| EBC-1 | – | – | – | – | – | 0.199 | 0.22 | 0.215 | 0.185 | 0.214 | – | – | – | – | – | – | – | – | – | – |
| NCI-H441 | 1.06 | 0.801 | 0.883 | 0.884 | 0.871 | – | – | – | – | – | 0.182 | 0.177 | 0.249 | 0.212 | 0.188 | 1.18 | 1.24 | 1.07 | 0.817 | 1.1 |
| NCI-H1299 | – | – | – | – | – | 0.908 | 1.03 | 0.997 | 0.958 | 0.939 | – | – | – | – | – | – | – | – | – | – |
| NCI-H596 | 0.768 | 0.863 | 0.78 | 0.913 | 0.836 | 1.1 | 0.942 | 1.22 | 0.989 | 1.17 | – | – | – | – | – | 1.15 | 1.23 | 1.12 | 1.14 | 1.24 |
